In US11780841B2, “3,6-methano-1H-pyrrolo[3,2-b]pyridine and 3,6-methano-1H-pyrrolo[3,2-c]pyridine compounds and medicaments using same” (priority 2018, dated 2023):
pIC50: −log10 of the molar value.

System: recombinant rabies virus 1088 strain expressing Gaussia Luciferase (GLuc) (1088/GLuc)
Type: cell-based
Details: read-out: Anti-rabies activity

SMILES	pIC50
NC(=O)CCNC(=O)[C@]12NC[C@H]3C[C@H]1CN(CCc1ccccc1)[C@H]2[C@@H]3Cc1ccccc1 [IB-707]	> 5.30
CC(C)CC[C@@H]1[C@H]2CN[C@@]3(C(=O)NCCO)[C@@H](C2)CN(Cc2ccccc2)[C@@H]13 [IB-680]	4.52 to 5.00
CC(C)CC[C@@H]1[C@H]2CN[C@@]3(C(=O)NCc4cccc5ccccc45)[C@@H](C2)CN(CC(N)=O)[C@@H]13 [IB-84]	4.52 to 5.00
CC(C)C[C@@H]1[C@@H]2[C@@H]3CN[C@@]1(C(=O)NCc1ccccc1)C[C@@H]3CN2Cc1ccc(N(C)C)cc1 [IF-848]	5.00 to 5.30
CC(C)CC1C2CNC3(C(=O)NCCc4ccccc4)C(C2)CN(Cc2ccc(O)cc2)C13 (centres unmarked) [IB-540]	4.52 to 5.00
CC(C)CC[C@@H]1[C@@H]2[C@@H]3CN[C@@]1(C(=O)NCC(C)C)C[C@@H]3CN2Cc1ccccc1 [IF-411]	> 5.30
CCCCCCNC(=O)[C@@]12C[C@@H]3CN(CC4CCCCC4)[C@@H]([C@@H]3CN1)[C@H]2CCCNC(=N)N [IF-260]	4.52 to 5.00
CC(C)C[C@@H]1[C@@H]2[C@@H]3CN[C@@]1(C(=O)NCc1ccc(O)cc1)C[C@@H]3CN2CC1CCCCC1 [IF-478]	> 5.30
CC(C)CC[C@@H]1[C@H]2CN[C@@]3(C(=O)NCc4ccc(F)cc4)[C@@H](C2)CN(CCC(=O)O)[C@@H]13 [IB-399]	4.52 to 5.00
O=C(NCCO)[C@@]12C[C@@H]3CN(Cc4cccc5ccccc45)[C@@H]([C@@H]3CN1)[C@H]2Cc1ccccc1 [IF-603]	4.52 to 5.00
CCOc1ccc(CN2C[C@H]3C[C@]4(C(=O)NCc5ccccc5)NC[C@H]3[C@H]2[C@H]4CC(C)C)cc1 [IF-853]	5.00 to 5.30
CC(C)C[C@@H]1[C@H]2CN[C@@]3(C(=O)NCc4ccc(O)cc4)[C@@H](C2)CN(CCc2ccccc2)[C@@H]13 [IB-449]	4.52 to 5.00
N=C(N)NCCCNC(=O)[C@]12NC[C@H]3C[C@H]1CN(Cc1cccc4ccccc14)[C@H]2[C@@H]3CCc1ccccc1 [IB-354]	> 5.30
O=C(NCCc1ccccc1)[C@@]12C[C@@H]3CN(CC4CCCCC4)[C@@H]([C@@H]3CN1)[C@H]2Cc1cccc2ccccc12 [IF-718]	> 5.30
CCCCCCNC(=O)[C@@]12C[C@@H]3CN(Cc4ccccc4)[C@@H]([C@@H]3CN1)[C@H]2CCCNC(=N)N [IF-285]	4.52 to 5.00
CC(C)CCN1C[C@H]2C[C@]3(C(=O)NCCC(=O)O)NC[C@H]2[C@H]1[C@H]3Cc1cccc2ccccc12 [IF-413]	4.52 to 5.00
O=C(NCc1ccccc1)[C@@]12C[C@@H]3CN(CCc4ccccc4)[C@@H]([C@@H]3CN1)[C@H]2Cc1ccc(O)cc1 [IF-640]	4.52 to 5.00
O=C(NCCO)[C@]12NC[C@H]3C[C@H]1CN(CCc1ccccc1)[C@H]2[C@@H]3Cc1cccc2ccccc12 [IB-593]	4.52 to 5.00
CC(C)CCN1C[C@H]2C[C@]3(C(=O)NCC(C)C)NC[C@H]2[C@H]1[C@H]3Cc1cccc2ccccc12 [IF-734]	> 5.30
CC(C)CNC(=O)[C@]12NC[C@H]3C[C@H]1CN(CCc1ccccc1)[C@H]2[C@@H]3CC(C)C [IB-760]	> 5.30
CC(C)CCN1C[C@@H]2C[C@@H]3CN[C@]2(C(=O)NCc2ccccc2)[C@@H]1[C@@H]3Cc1ccc(O)cc1 [IB-749]	4.52 to 5.00
CC(C)CC1C2C=NC3(C(=O)NCc4ccccc4)C(C2)CN(Cc2cccc(Cl)c2)C13 (centres unmarked) [IIB-84]	> 5.30
CC(C)CN1C[C@H]2C[C@]3(C(=O)NCc4ccc(F)cc4)NC[C@H]2[C@H]1[C@H]3Cc1ccccc1 [IF-815]	> 5.30

SMILES	pIC50
CC(C)CNC(=O)[C@@]12C[C@@H]3CN(Cc4cccc5ccccc45)[C@@H]([C@@H]3CN1)[C@H]2CC(N)=O [IF-226]	4.52 to 5.00
CC(C)CCNC(=O)[C@@]12C[C@@H]3CN(CC(C)C)[C@@H]([C@@H]3CN1)[C@H]2CCc1ccccc1 [IF-673]	> 5.30
O=C(NCc1ccccc1)[C@@]12C[C@@H]3CN(CC4CCCCC4)[C@@H]([C@@H]3CN1)[C@H]2Cc1ccc(O)cc1 [IF-645]	4.52 to 5.00
CC(C)NC(=O)[C@@]12C[C@@H]3CN(Cc4cccc5ccccc45)[C@@H]([C@@H]3CN1)[C@H]2Cc1cccc2ccccc12 [IF-596]	4.52 to 5.00
O=C(O)CCNC(=O)[C@@]12C[C@@H]3CN(CC4CCCCC4)[C@@H]([C@@H]3CN1)[C@H]2Cc1cccc2ccccc12 [IF-416]	4.52 to 5.00
NC(=O)CN1C[C@@H]2C[C@@H]3CN[C@]2(C(=O)NCCc2ccccc2)[C@@H]1[C@@H]3Cc1ccccc1 [IB-87]	> 5.30
N=C(N)NCCCNC(=O)[C@]12NC[C@H]3C[C@H]1CN(CCc1ccccc1)[C@H]2[C@@H]3Cc1cccc2ccccc12 [IB-347]	4.52 to 5.00
O=C(O)CC[C@@H]1[C@H]2CN[C@@]3(C(=O)NCc4cccc5ccccc45)[C@@H](C2)CN(CC2CCCCC2)[C@@H]13 [IB-389]	4.52 to 5.00
CC(C)C[C@@H]1[C@@H]2[C@@H]3CN[C@@]1(C(=O)NCc1ccccc1)C[C@@H]3CN2CC1CCCCC1 [IF-644]	> 5.30
Cc1ccc(CN2C[C@H]3C[C@@]4(C(=O)NCc5ccccc5)[C@H](CC(C)C)[C@@H]2[C@@H]3CN4C(=O)Cc2ccccc2)cc1 [IF-859]	5.00 to 5.30
CC(C)CC[C@@H]1[C@H]2CN[C@@]3(C(=O)NCCCNC(=N)N)[C@@H](C2)CN(Cc2ccc(F)cc2)[C@@H]13 [IB-369]	4.52 to 5.00
CC(C)CC1C2C=NC3(C(=O)NCc4ccccc4)C(C2)CN(Cc2ccc(Cl)cc2)C13 (centres unmarked) [IIB-83]	> 5.30
NC(=O)CCNC(=O)[C@@]12C[C@@H]3CN(CC4CCCCC4)[C@@H]([C@@H]3CN1)[C@H]2Cc1cccc2ccccc12 [IF-536]	> 5.30
CC(C)C[C@@H]1[C@@H]2[C@@H]3CN[C@@]1(C(=O)NCc1ccc(C(F)(F)F)cc1)C[C@@H]3CN2Cc1ccccc1 [IF-838]	4.52 to 5.00
CCCCCCNC(=O)[C@]12NC[C@H]3C[C@H]1CN(CC(N)=O)[C@H]2[C@@H]3CCc1ccccc1 [IB-109]	4.52 to 5.00
CC(C)CC[C@@H]1[C@@H]2[C@@H]3CN[C@@]1(C(=O)NCc1ccc(O)cc1)C[C@@H]3CN2CCC(=O)O [IF-458]	4.52 to 5.00
CC(C)CCN1C[C@H]2C[C@]3(C(=O)NCc4ccccc4)NC[C@H]2[C@H]1[C@H]3CC(C)C [IF-851]	4.52 to 5.00
CC(C)C[C@@H]1[C@@H]2[C@@H]3CN[C@@]1(C(=O)NCc1cccc4ccccc14)C[C@@H]3CN2Cc1ccc(O)cc1 (relative stereo) [IF-578]	> 5.30
CC(C)CC[C@@H]1[C@H]2CN[C@@]3(C(=O)NCc4ccccc4)[C@@H](C2)CN(CCC(=O)O)[C@@H]13 [IB-694]	4.52 to 5.00
CCCCCCNC(=O)[C@]12NC[C@H]3C[C@H]1CN(CC(N)=O)[C@H]2[C@@H]3CCC(C)C [IB-108]	4.52 to 5.00
CC(C)CCN1C[C@@H]2C[C@@H]3CN[C@]2(C(=O)NCCO)[C@@H]1[C@@H]3CCc1ccccc1 [IB-658]	4.52 to 5.00
CCCCCCNC(=O)[C@]12NC[C@H]3C[C@H]1CN(CCCNC(=N)N)[C@H]2[C@@H]3CCc1ccccc1 [IB-174]	4.52 to 5.00
CC(C)C[C@@H]1[C@H]2CN[C@@]3(C(=O)NCCc4ccccc4)[C@@H](C2)CN(CC(N)=O)[C@@H]13 [IB-86]	4.52 to 5.00

SMILES	pIC50
CC(C)CC1C2CNC3(C(=O)NCc4cccc5ccccc45)C(C2)CN(CCO)C13 (centres unmarked) [IB-585]	4.52 to 5.00
CC(C)CN1C[C@H]2C[C@]3(C(=O)NCc4ccc(F)cc4)NC[C@H]2[C@H]1[C@H]3CCc1ccccc1 (relative stereo) [IF-525]	4.52 to 5.00
O=C(NCCO)[C@]12NC[C@H]3C[C@H]1CN(CCc1ccccc1)[C@H]2[C@@H]3Cc1ccccc1 [IB-640]	> 5.30
CC(C)CC[C@@H]1[C@@H]2[C@@H]3CN[C@@]1(C(=O)NCc1ccccc1)C[C@@H]3CN2CC(C)C [IF-850]	5.00 to 5.30
Cc1ccc(CN2C[C@H]3C[C@]4(C(=O)NCc5ccccc5)NC[C@H]3[C@H]2[C@H]4CC(C)C)cc1 [IF-842]	> 5.30
CC(C)CC1C2C=NC3(C(=O)NCc4ccccc4)C(C2)CN(Cc2ccc(C(C)(C)C)cc2)C13 (centres unmarked) [IIB-95]	5.00 to 5.30
CC(C)CCN1C[C@H]2C[C@]3(C(=O)NCc4ccc(O)cc4)NC[C@H]2[C@H]1[C@H]3Cc1ccccc1 [IF-466]	4.52 to 5.00
CC(C)CC1C2C3C=NC1(C(=O)NCc1ccccc1)CC3CN2Cc1ccc(OC(F)(F)F)cc1 (centres unmarked) [IIF-96]	5.00 to 5.30
CCCCCCNC(=O)[C@@]12C[C@@H]3CN(CC(N)=O)[C@@H]([C@@H]3CN1)[C@H]2CCc1ccccc1 [IF-109]	4.52 to 5.00
O=C(NCc1cccc2ccccc12)[C@@]12C[C@@H]3CN(Cc4ccc(O)cc4)[C@@H]([C@@H]3CN1)[C@H]2Cc1cccc2ccccc12 [IF-779]	4.52 to 5.00
CC(C)CNC(=O)[C@@]12C[C@@H]3CN(CC(C)C)[C@@H]([C@@H]3CN1)[C@H]2Cc1cccc2ccccc12 [IF-680]	4.52 to 5.00
CC(C)CC[C@@H]1[C@@H]2[C@@H]3CN[C@@]1(C(=O)NC(C)C)C[C@@H]3CN2Cc1ccc(O)cc1 [IF-503]	> 5.30
N=C(N)NCCC[C@@H]1[C@H]2CN[C@@]3(C(=O)NCc4ccccc4)[C@@H](C2)CN(Cc2ccc(F)cc2)[C@@H]13 [IB-260]	4.52 to 5.00
CCCCCCNC(=O)[C@]12NC[C@H]3C[C@H]1CN(CCO)[C@H]2[C@@H]3Cc1ccccc1 [IB-476]	> 5.30
COC(=O)N1C[C@@H]2[C@H]3CN(Cc4ccc(C)cc4)[C@@H]2[C@@H](CC(C)C)[C@]1(C(=O)NCc1ccccc1)C3 [IF-860]	4.52 to 5.00
CC(C)NC(=O)[C@@]12C[C@@H]3CN(Cc4cccc5ccccc45)[C@@H]([C@@H]3CN1)[C@H]2CCc1ccccc1 [IF-789]	4.52 to 5.00
NC(=O)CCNC(=O)[C@]12NC[C@H]3C[C@H]1CN(Cc1ccccc1)[C@H]2[C@@H]3Cc1cccc2ccccc12 [IB-813]	> 5.30
O=C(NCc1ccc(F)cc1)[C@@]12C[C@@H]3CN(CCO)[C@@H]([C@@H]3CN1)[C@H]2CCc1ccccc1 (relative stereo) [IF-516]	> 5.30
CC(C)CC[C@@H]1[C@H]2CN[C@@]3(C(=O)NCc4ccc(O)cc4)[C@@H](C2)CN(CC(C)C)[C@@H]13 [IB-465]	4.52 to 5.00
CC(C)CC[C@@H]1[C@@H]2[C@@H]3CN[C@@]1(C(=O)NCCO)C[C@@H]3CN2Cc1ccc(F)cc1 [IF-490]	4.52 to 5.00
CC(C)CCN1C[C@H]2C[C@]3(C(=O)NCc4ccc(O)cc4)NC[C@H]2[C@H]1[C@H]3Cc1cccc2ccccc12 [IF-465]	4.52 to 5.00
O=C(NCc1ccc(F)cc1)[C@]12NC[C@H]3C[C@H]1CN(CCc1ccccc1)[C@H]2[C@@H]3Cc1ccc(O)cc1 [IB-642]	> 5.30
